Like-named read-outs stand apart in the source and are kept apart here.
Tests used:
[1] = target: T1, human recombinant adrenergic α2A receptor (Homo sapiens, UniProt P08913); experiment: Adrenergic α2A radioligand binding ([3H]MK-912); settings: compound at 1 μM
T1 construct: expressed in transfected cells; host or cells: insect Sf9 cells
T1 sequence (P08913 1-465): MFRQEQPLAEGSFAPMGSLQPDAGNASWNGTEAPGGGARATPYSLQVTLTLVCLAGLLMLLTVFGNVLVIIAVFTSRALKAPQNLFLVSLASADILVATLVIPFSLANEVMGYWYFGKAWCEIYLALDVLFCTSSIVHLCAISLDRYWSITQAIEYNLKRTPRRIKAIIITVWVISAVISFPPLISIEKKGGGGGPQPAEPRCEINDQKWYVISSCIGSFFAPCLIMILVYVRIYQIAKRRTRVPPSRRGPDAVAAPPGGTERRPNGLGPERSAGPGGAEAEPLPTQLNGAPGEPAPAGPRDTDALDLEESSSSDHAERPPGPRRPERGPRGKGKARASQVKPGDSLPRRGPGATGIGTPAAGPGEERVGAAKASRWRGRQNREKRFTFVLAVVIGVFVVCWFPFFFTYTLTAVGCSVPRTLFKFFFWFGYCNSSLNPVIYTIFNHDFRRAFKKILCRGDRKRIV
Method: To evaluate in radioligand binding assays the activity of compounds of the invention, human recombinant adrenergic α2A receptor expressed in insect Sf9 cells (Uhlen S et al. J Pharmacol Exp Ther. 271:1558, 1994) in a modified Tris-HCl buffer (50 mM Tris-HCl, pH 7.4, 12.5 mM MgCl2, 2 mM EDTA) was used. Compounds of invention were incubated with 1 nM [^3H]MK-912 for 60 min. at 25° C. MK912 is (2S-trans)-1,3,4,5′,6,6′,7,12b-octahydro-1′,3′-dimethyl-spiro[2H-benzofuro[2,3-a]quinolizine-2,4′(1′H)-pyrimidin]-2′(3′H)-one hydrochloride Non-specific binding was estimated in the presence of 10 μM WB-4101 (2-(2,6-Dimethoxyphenoxyethyl)aminomethyl-1,4-benzodioxane hydrochloride). Receptor proteins were filtered and washed, the filters were then counted to determine [^3H]MK-912 specifically bound. Compounds were screened at 1 μM or lower, using 1% DMSO as vehicle. Biochemical assay results are presented as the percent inhibition of specific binding in Table 9.

[2] = target: T2, human recombinant histamine H2 receptor (Homo sapiens, UniProt P25021); experiment: Histamine H2 radioligand binding ([125I]Aminopotentidine); settings: read-out: Histamine Binding (1 μM) H2, percent inhibition of specific binding, 1 μM
T2 construct: expressed in transfected cells; host or cells: Chinese hamster ovary (CHO) K1 cells
T2 sequence (P25021 whole entry): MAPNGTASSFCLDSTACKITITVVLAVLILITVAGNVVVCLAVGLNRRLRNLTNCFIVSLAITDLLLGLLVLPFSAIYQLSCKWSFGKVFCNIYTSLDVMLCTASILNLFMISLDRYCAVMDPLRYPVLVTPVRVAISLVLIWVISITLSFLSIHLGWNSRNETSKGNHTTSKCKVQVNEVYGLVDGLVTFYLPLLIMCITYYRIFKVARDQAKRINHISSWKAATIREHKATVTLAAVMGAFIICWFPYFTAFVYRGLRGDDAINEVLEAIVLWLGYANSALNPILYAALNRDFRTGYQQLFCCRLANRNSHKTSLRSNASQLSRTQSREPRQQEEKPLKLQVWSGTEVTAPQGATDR
Outline: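 CHO-K1 cells expressing human recombinant H2 receptor, 50 mM phosphate buffer pH 7.4; compounds incubated with 0.1 nM [125I]aminopotentidine for 120 min at 25 °C. Nonspecific binding defined with 3 μM tiotidine; specifically bound radioligand counted after filtration and washing.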

[3] = target: human recombinant serotonin (5-Hydroxytryptamine) 5-HT7 receptor (Homo sapiens, UniProt P34969); experiment: Serotonin 5-HT7 radioligand binding ([3H]LSD); settings: compound at 1 μM; read-out: Inhibition of ligand binding, Serotonin 5-HT7 (percent inhibition of specific binding)
Sequence of human recombinant serotonin (5-Hydroxytryptamine) 5-HT7 receptor (P34969 whole entry): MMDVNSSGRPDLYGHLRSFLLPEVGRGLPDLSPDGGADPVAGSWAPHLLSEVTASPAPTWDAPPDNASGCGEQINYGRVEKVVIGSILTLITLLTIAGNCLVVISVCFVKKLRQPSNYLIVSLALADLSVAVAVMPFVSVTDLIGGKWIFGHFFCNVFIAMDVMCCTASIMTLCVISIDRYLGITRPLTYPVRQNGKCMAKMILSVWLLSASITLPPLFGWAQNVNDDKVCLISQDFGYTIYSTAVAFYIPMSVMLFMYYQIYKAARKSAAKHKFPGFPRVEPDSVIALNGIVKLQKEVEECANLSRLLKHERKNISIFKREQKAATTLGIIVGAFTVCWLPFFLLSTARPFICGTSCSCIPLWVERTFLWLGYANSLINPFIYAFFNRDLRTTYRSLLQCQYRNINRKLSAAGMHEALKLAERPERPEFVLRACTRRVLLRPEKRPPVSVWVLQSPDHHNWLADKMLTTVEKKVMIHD
Text: Receptor proteins were filtered and washed, the filters were then counted to determine [^3H]LSD specifically bound.

[4] = target: T3, human recombinant serotonin (5-Hydroxytryptamine) 5-HT2A receptor (Homo sapiens, UniProt P28223); experiment: Serotonin 5-HT2A radioligand binding ([3H]Ketanserin); settings: read-out: Inhibition of ligand binding, Serotonin 5-HT2A (percent inhibition of specific binding), compound at 1 μM
T3 construct: expressed in transfected cells; host or cells: Chinese hamster ovary (CHO-K1) cells
T3 sequence (P28223 whole entry): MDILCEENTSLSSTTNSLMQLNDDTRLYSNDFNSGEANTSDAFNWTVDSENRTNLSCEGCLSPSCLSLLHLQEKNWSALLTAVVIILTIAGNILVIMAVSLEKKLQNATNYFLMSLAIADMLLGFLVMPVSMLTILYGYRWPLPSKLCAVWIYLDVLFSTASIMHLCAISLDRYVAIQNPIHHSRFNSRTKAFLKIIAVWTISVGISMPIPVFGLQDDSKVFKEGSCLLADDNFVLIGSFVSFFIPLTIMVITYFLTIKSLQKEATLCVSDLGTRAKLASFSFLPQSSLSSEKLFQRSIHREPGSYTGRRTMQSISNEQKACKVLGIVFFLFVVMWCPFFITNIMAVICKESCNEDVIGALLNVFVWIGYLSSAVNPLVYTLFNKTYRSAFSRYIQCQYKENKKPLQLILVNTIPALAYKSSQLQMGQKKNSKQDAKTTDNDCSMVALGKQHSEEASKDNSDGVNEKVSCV
Method: Compounds of the invention were incubated with 0.5 nM [^3H]Ketanserin for 60 min. at 25° C. Non-specific binding was estimated in the presence of 1 μM Mianserin. Receptor proteins were filtered and washed, the filters were then counted to determine [^3H]Ketanserin specifically bound.

[5] = target: T4, human recombinant serotonin (5-Hydroxytryptamine) 5-HT6 receptor (Homo sapiens, UniProt P50406); experiment: Serotonin 5-HT6 radioligand binding ([3H]LSD); settings: read-out: Inhibition of ligand binding, Serotonin 5-HT6 (percent inhibition of specific binding); for inhibition at 1 µM: compound at 1 μM
T4 construct: expressed in transfected cells; host or cells: human HeLa cells
T4 sequence (P50406 whole entry): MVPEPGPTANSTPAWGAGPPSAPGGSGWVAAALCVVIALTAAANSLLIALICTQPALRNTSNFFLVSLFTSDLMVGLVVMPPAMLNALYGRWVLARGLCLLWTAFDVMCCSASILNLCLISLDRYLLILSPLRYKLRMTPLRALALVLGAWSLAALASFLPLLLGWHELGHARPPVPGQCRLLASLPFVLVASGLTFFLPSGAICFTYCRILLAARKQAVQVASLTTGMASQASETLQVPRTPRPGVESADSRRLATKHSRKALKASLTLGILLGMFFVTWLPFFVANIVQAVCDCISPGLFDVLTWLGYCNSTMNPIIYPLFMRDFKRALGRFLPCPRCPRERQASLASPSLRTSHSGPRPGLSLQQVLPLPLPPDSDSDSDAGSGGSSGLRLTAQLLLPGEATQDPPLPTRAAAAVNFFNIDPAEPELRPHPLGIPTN
Method: Compounds of the invention were incubated with 1.5 nM [3H]Lysergic acid diethylamide (LSD) for 120 min. at 37° C. […] Receptor proteins were filtered and washed, the filters were then counted to determine [3H]LSD specifically bound. Compounds were screened at 1 μM or lower, using 1% DMSO as vehicle. Biochemical assay results are presented as the percent inhibition of specific binding in Table 10.

[6] = target: T5, human recombinant adrenergic α1D receptor (Homo sapiens, UniProt P25100); experiment: Adrenergic α1D radioligand binding ([3H]Prozosin); settings: compound at 1 μM
T5 construct: expressed in transfected cells; host or cells: human embryonic kidney (HEK-293) cells
T5 sequence (P25100 1-572): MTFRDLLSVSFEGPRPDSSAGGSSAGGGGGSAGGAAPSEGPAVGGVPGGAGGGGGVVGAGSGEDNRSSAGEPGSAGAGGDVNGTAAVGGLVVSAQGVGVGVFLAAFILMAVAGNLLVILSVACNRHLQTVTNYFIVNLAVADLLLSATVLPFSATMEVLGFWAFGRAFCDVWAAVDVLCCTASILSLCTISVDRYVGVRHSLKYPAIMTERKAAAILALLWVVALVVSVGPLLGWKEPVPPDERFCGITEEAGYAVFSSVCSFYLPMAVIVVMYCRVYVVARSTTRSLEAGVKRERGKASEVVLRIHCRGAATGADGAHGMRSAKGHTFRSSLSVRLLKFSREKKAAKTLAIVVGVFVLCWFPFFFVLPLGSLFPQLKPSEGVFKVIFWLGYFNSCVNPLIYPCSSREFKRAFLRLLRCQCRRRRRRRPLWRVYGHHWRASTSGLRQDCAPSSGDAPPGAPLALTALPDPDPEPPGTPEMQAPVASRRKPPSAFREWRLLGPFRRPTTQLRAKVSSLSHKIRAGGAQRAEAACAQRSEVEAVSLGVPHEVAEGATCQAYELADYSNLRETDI
Method: Compounds of invention were incubated with 0.6 nM [^3H]Prozosin for 60 min. at 25° C. Non-specific binding was estimated in the presence of 10 μM phentolamine. Receptor proteins were filtered and washed, the filters were then counted to determine [^3H]Prozosin specifically bound. Compounds were screened at 1 μM or lower, using 1% DMSO as vehicle. Biochemical assay results are presented as the percent inhibition of specific binding in Table 9.

[7] = percent inhibition of specific binding, read-out: Inhibition of ligand binding, Adrenergic α2A
[8] = percent inhibition of specific binding, read-out: Inhibition of ligand binding, Adrenergic α1D

CCN1CCc2c(c3ccccc3n2CC(O)c2ccc(C)cc2)C1 (racemic) [Compound 44, racemic-2-(2-ethyl-1,2,3,4-tetrahydropyrido[4,3-b]indol-5-yl)-1-p-tolylethanol]
inhibition at 1 µM [1, 7]: 65% | inhibition at 1 µM [2]: 26% | inhibition at 1 µM [3]: 42% | inhibition at 1 µM [4]: 80% | inhibition at 1 µM [5]: 9% | inhibition at 1 µM [6, 8]: 35%

CCN1CCc2c(c3cc(C)ccc3n2CC(O)c2ccc(C)cc2)C1 (racemic) [Compound 51, racemic-2-(2-ethyl-1,2,3,4-tetrahydro-8-methylpyrido[4,3-b]indol-5-yl)-1-p-tolylethanol]
inhibition at 1 µM [1, 7]: 91% | inhibition at 1 µM [2]: 59% | inhibition at 1 µM [3]: 91% | inhibition at 1 µM [4]: 102% | inhibition at 0.1 µM ([5]; compound at 0.1 μM): 29% | inhibition at 1 µM [5]: 83% | inhibition at 1 µM [6, 8]: 89%

COc1ccc(/C(C)=C/n2c3c(c4cc(Cl)ccc42)CN(C)CC3)cc1 [Compound 92, (E)-8-chloro-2,3,4,5-tetrahydro-5-(2-(4-methoxyphenyl)prop-1-enyl)-2-methyl-1H-pyrido[4,3-b]indole]
inhibition at 1 µM [1, 7]: 89% | inhibition at 1 µM [2]: 99% | inhibition at 1 µM [4]: 100% | inhibition at 1 µM [5]: 97% | inhibition at 1 µM [6, 8]: 99%

COc1ccc(/C(C)=C/n2c3c(c4cc(Cl)ccc42)CN(C)CC3)cc1F [Compound 93, (E)-8-chloro-5-(2-(3-fluoro-4-methoxyphenyl)prop-1-enyl)-2,3,4,5-tetrahydro-2-methyl-1H-pyrido[4,3-b]indole]
inhibition at 1 µM [1, 7]: 94% | inhibition at 1 µM [2]: 100% | inhibition at 1 µM [4]: 100% | inhibition at 1 µM [5]: 93% | inhibition at 1 µM [6, 8]: 96%

Cc1ccc(/C=C/Cn2c3c(c4cc(Cl)ccc42)CN(C)CC3)cn1 [Compound 125, 8-chloro-2,3,4,5-tetrahydro-2-methyl-5-((E)-3-(6-methylpyridin-3-yl)allyl)-1H-pyrido[4,3-b]indole]
inhibition at 1 µM [1, 7]: 76% | inhibition at 1 µM [2]: 48% | inhibition at 1 µM [4]: 97% | inhibition at 1 µM [5]: 62% | inhibition at 1 µM [6, 8]: 51%

CN1CCc2c(c3cc(Cl)ccc3n2C/C=C/c2ccc(F)cc2)C1 [Compound 126, 5-(4-fluorocinnamyl)-8-chloro-2,3,4,5-tetrahydro-2-methyl-1H-pyrido[4,3-b]indole]
inhibition at 1 µM [1, 7]: 87% | inhibition at 1 µM [2]: 85% | inhibition at 1 µM [4]: 102% | inhibition at 1 µM [5]: 95% | inhibition at 1 µM [6, 8]: 50%

CN1CCc2c(c3cc(Cl)ccc3n2C/C=C/c2ccncc2)C1 [Compound 127, 8-chloro-2,3,4,5-tetrahydro-2-methyl-5-((E)-3-(pyridin-4-yl)allyl)-1H-pyrido[4,3-b]indole]
inhibition at 1 µM [1, 7]: 60% | inhibition at 1 µM [2]: 22% | inhibition at 1 µM [4]: 84% | inhibition at 1 µM [5]: 41% | inhibition at 1 µM [6, 8]: 46%

C=C(Cn1c2c(c3cc(Cl)ccc31)CN(C)CC2)c1cccnc1 [Compound 133, 8-chloro-2,3,4,5-tetrahydro-2-methyl-5-(2-(pyridin-3-yl)allyl)-1H-pyrido[4,3-b]indole]
inhibition at 1 µM [1, 7]: 89% | inhibition at 1 µM [2]: 60% | inhibition at 1 µM [4]: 96% | inhibition at 1 µM [5]: 80% | inhibition at 1 µM [6, 8]: 55%

C=C(Cn1c2c(c3cc(Cl)ccc31)CN(C)CC2)c1ccc(C)nc1 [Compound 136, 8-chloro-2,3,4,5-tetrahydro-2-methyl-5-(2-(6-methylpyridin-3-yl)allyl)-1H-pyrido[4,3-b]indole]
inhibition at 1 µM [1, 7]: 95% | inhibition at 1 µM [2]: 85% | inhibition at 1 µM [4]: 100% | inhibition at 1 µM [5]: 73% | inhibition at 1 µM [6, 8]: 70%

C=C(Cn1c2c(c3cc(Cl)ccc31)CN(C)CC2)c1ccc(OC)c(F)c1 [Compound 140, 8-chloro-5-(2-(3-fluoro-4-methoxyphenyl)allyl)-2,3,4,5-tetrahydro-2-methyl-1H-pyrido[4,3-b]indole]
inhibition at 1 µM [1, 7]: 86% | inhibition at 1 µM [2]: 99% | inhibition at 1 µM [4]: 98% | inhibition at 1 µM [5]: 75% | inhibition at 1 µM [6, 8]: 84%

COc1ccc(C(C)(O)Cn2c3c(c4cc(C)ccc42)CN(C)CC3)cc1F (stereo not shown) [Compound 173, 1-(2,8-dimethyl-3,4-dihydro-1H-pyrido[4,3-b]indol-5(2H)-yl)-2-(3-fluoro-4-methoxyphenyl)propan-2-ol]
inhibition at 1 µM [1, 7]: 94% | inhibition at 1 µM [2]: 78% | inhibition at 1 µM [3]: 103% | inhibition at 1 µM [5]: 85% | inhibition at 1 µM [6, 8]: 58%

CN1CCc2c(c3cc(Cl)ccc3n2C2=C(c3cccnc3)CCCC2)C1 [Compound No. 166, 8-chloro-2-methyl-5-(2-(pyridin-3-yl)cyclohex-1-enyl)-2,3,4,5-tetrahydro-1H-pyrido[4,3-b]indole]
inhibition at 1 µM [1, 7]: 44% | inhibition at 1 µM [2]: 56% | inhibition at 1 µM [4]: 46% | inhibition at 1 µM [5]: 6% | inhibition at 1 µM [6, 8]: 28%

CN1CCc2c(c3cc(Cl)ccc3n2C#Cc2ccc(F)cc2)C1 [Compound No. 475, 8-chloro-5-((4-fluorophenyl)ethynyl)-2-methyl-2,3,4,5-tetrahydro-1H-pyrido[4,3-b]indole]
inhibition at 1 µM ([1]; read-out: Inhibition of ligand binding, Adrenergic α2A (percent inhibition of specific binding)): 93% | inhibition at 1 µM [2]: 91% | inhibition at 1 µM [4]: 99% | inhibition at 1 µM [5]: 99% | inhibition at 1 µM ([6]; read-out: Inhibition of ligand binding, Adrenergic α1D (percent inhibition of specific binding)): 91%

Cc1ccc2c(c1)c1c(n2/C=C/c2ccc(C)nc2)CCN(C)C1 [compound 95, 2,3,4,5-tetrahydro-2,8-dimethyl-5-((E)-2-(6-methylpyridin-3-yl)vinyl)-1H-pyrido[4,3-b]indole]
inhibition at 1 µM [1, 7]: 95% | inhibition at 1 µM [2]: 41% | inhibition at 1 µM [4]: 91% | inhibition at 1 µM [5]: 71% | inhibition at 1 µM [6, 8]: 89%
